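GI50 = concentration required for 50% inhibition of growth. Definition used: TGI = concentration required for complete inhibition of growth.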
Assays:
Assay in all cases: NCI-60 cell line screen, 384-well format
T-47D breast = system: T-47D breast
PC-3 prostate = system: PC-3 prostate
SF-295 CNS = system: SF-295 CNS
TK-10 renal = system: TK-10 renal
SK-MEL-2 melanoma = system: SK-MEL-2 melanoma
HOP-92 NSCLC = system: HOP-92 NSCLC
IGROV1 ovarian = system: IGROV1 ovarian
LOX IMVI melanoma = system: LOX IMVI melanoma
MDA-MB-231 breast = system: MDA-MB-231 breast
SN12C renal = system: SN12C renal
UACC-62 melanoma = system: UACC-62 melanoma
OVCAR-3 ovarian = system: OVCAR-3 ovarian
UO-31 renal = system: UO-31 renal
HCT-116 colon = system: HCT-116 colon
EKVX NSCLC = system: EKVX NSCLC
CCRF-CEM leukemia = system: CCRF-CEM leukemia
NCI-H322M lung = system: NCI-H322M lung
DU-145 prostate = system: DU-145 prostate
A549 NSCLC = system: A549 NSCLC
SNB-75 CNS = system: SNB-75 CNS
OVCAR-8 ovarian = system: OVCAR-8 ovarian
KM12 colon = system: KM12 colon
SW-620 colon = system: SW-620 colon
BT-549 breast = system: BT-549 breast
MCF7 breast = system: MCF7 breast
SK-OV-3 ovarian = system: SK-OV-3 ovarian
HCC-2998 colon = system: HCC-2998 colon
OVCAR-4 ovarian = system: OVCAR-4 ovarian
SR leukemia = system: SR leukemia
NCI-H226 lung = system: NCI-H226 lung
MDA-MB-468 breast = system: MDA-MB-468 breast
RXF 393 renal = system: RXF 393 renal
SK-MEL-28 melanoma = system: SK-MEL-28 melanoma
MDA-MB-435 melanoma = system: MDA-MB-435 melanoma
OVCAR-5 ovarian = system: OVCAR-5 ovarian
M14 melanoma = system: M14 melanoma
HCT-15 colon = system: HCT-15 colon
NCI-H23 lung = system: NCI-H23 lung
MOLT-4 leukemia = system: MOLT-4 leukemia
K-562 leukemia = system: K-562 leukemia
RPMI-8226 leukemia = system: RPMI-8226 leukemia
NCI-H460 NSCLC = system: NCI-H460 NSCLC
SNB-19 CNS = system: SNB-19 CNS
786-0 renal = system: 786-0 renal
HS 578T breast = system: HS 578T breast
SF-539 CNS = system: SF-539 CNS
HL-60(TB) leukemia = system: HL-60(TB) leukemia

Compound: Cn1ncc2cc(-c3cnc(N)c(Cl)c3N3CCC4(CCNC4=O)CC3)ccc21
- GI50 (T-47D breast): 21.5 µM
- TGI (T-47D breast): > 96.1 µM
- GI50 (PC-3 prostate): 28.3 µM
- TGI (PC-3 prostate): > 96.5 µM
- GI50 (SF-295 CNS): 46.1 µM
- TGI (SF-295 CNS): > 100 µM
- GI50 (TK-10 renal): 38.2 µM
- TGI (TK-10 renal): > 100 µM
- GI50 (SK-MEL-2 melanoma): 17.6 µM
- TGI (SK-MEL-2 melanoma): 47.1 µM
- GI50 (HOP-92 NSCLC): 41.4 µM
- TGI (HOP-92 NSCLC): > 87.8 µM
- GI50 (IGROV1 ovarian): 19.6 µM
- TGI (IGROV1 ovarian): > 87 µM
- GI50 (LOX IMVI melanoma): 39.5 µM
- TGI (LOX IMVI melanoma): > 100 µM
- GI50 (MDA-MB-231 breast): 32.8 µM
- TGI (MDA-MB-231 breast): > 100 µM
- GI50 (SN12C renal): 48.2 µM
- TGI (SN12C renal): > 100 µM
- GI50 (UACC-62 melanoma): 33.2 µM
- TGI (UACC-62 melanoma): 97.6 µM
- GI50 (OVCAR-3 ovarian): 23.5 µM
- TGI (OVCAR-3 ovarian): > 100 µM
- GI50 (UO-31 renal): 32.3 µM
- TGI (UO-31 renal): > 100 µM
- GI50 (HCT-116 colon): 29.4 µM
- TGI (HCT-116 colon): > 100 µM
- GI50 (EKVX NSCLC): 28.2 µM
- TGI (EKVX NSCLC): > 91.8 µM
- GI50 (CCRF-CEM leukemia): 14.3 µM
- TGI (CCRF-CEM leukemia): 32.9 µM
- GI50 (NCI-H322M lung): 47.6 µM
- TGI (NCI-H322M lung): > 100 µM
- GI50 (DU-145 prostate): 33.9 µM
- TGI (DU-145 prostate): > 100 µM
- GI50 (A549 NSCLC): 47.6 µM
- TGI (A549 NSCLC): > 100 µM
- GI50 (SNB-75 CNS): 58.3 µM
- TGI (SNB-75 CNS): > 100 µM
- GI50 (OVCAR-8 ovarian): 34.8 µM
- TGI (OVCAR-8 ovarian): > 100 µM
- GI50 (KM12 colon): 32.4 µM
- TGI (KM12 colon): > 100 µM
- GI50 (SW-620 colon): 3.59 µM
- TGI (SW-620 colon): 17.5 µM
- GI50 (BT-549 breast): 38.1 µM
- TGI (BT-549 breast): > 100 µM
- GI50 (MCF7 breast): 48.1 µM
- TGI (MCF7 breast): > 100 µM
- GI50 (SK-OV-3 ovarian): 29.9 µM
- TGI (SK-OV-3 ovarian): > 93.3 µM
- GI50 (HCC-2998 colon): 43.1 µM
- TGI (HCC-2998 colon): > 100 µM
- GI50 (OVCAR-4 ovarian): 97.1 µM
- TGI (OVCAR-4 ovarian): > 100 µM
- GI50 (SR leukemia): 8.79 µM
- TGI (SR leukemia): 21.7 µM
- GI50 (NCI-H226 lung): 19.6 µM
- TGI (NCI-H226 lung): 53.7 µM
- GI50 (MDA-MB-468 breast): 9.27 µM
- TGI (MDA-MB-468 breast): 25.5 µM
- GI50 (RXF 393 renal): 18.6 µM
- TGI (RXF 393 renal): 42.9 µM
- GI50 (SK-MEL-28 melanoma): 39.6 µM
- TGI (SK-MEL-28 melanoma): > 100 µM
- GI50 (MDA-MB-435 melanoma): > 87.5 µM
- TGI (MDA-MB-435 melanoma): > 100 µM
- GI50 (OVCAR-5 ovarian): 51 µM
- TGI (OVCAR-5 ovarian): > 100 µM
- GI50 (M14 melanoma): > 78.2 µM
- TGI (M14 melanoma): > 100 µM
- GI50 (HCT-15 colon): 22.5 µM
- TGI (HCT-15 colon): 83.4 µM
- GI50 (NCI-H23 lung): 34.2 µM
- TGI (NCI-H23 lung): > 80.3 µM
- GI50 (MOLT-4 leukemia): 10.8 µM
- TGI (MOLT-4 leukemia): 23.8 µM
- GI50 (K-562 leukemia): 36.1 µM
- TGI (K-562 leukemia): > 100 µM
- GI50 (RPMI-8226 leukemia): 3.6 µM
- TGI (RPMI-8226 leukemia): 27.6 µM
- GI50 (NCI-H460 NSCLC): 35.9 µM
- TGI (NCI-H460 NSCLC): > 100 µM
- GI50 (SNB-19 CNS): 63.1 µM
- TGI (SNB-19 CNS): > 100 µM
- GI50 ([…]-0 renal): 10.7 µM
- TGI (786-0 renal): 25.4 µM
- GI50 (HS 578T breast): 24.1 µM
- TGI (HS 578T breast): 46.9 µM
- GI50 (SF-539 CNS): 48.6 µM
- TGI (SF-539 CNS): > 100 µM
- GI50 (HL-60(TB) leukemia): 13.4 µM
- TGI (HL-60(TB) leukemia): 26.2 µM

Reference: PubChem BioAssay (NCI)
